Measured values: article PMC11995230 (ACS Medicinal Chemistry Letters, 2025)
Like-named read-outs stand apart in the source and are kept apart here.

What was measured:
[1] = tested on: H. pylori Tx30a (ATCC 51932) live cells; experiment: Whole cell ureolysis assay, cresol red; type: cell-based, Helicobacter pylori
Description: (§1) Enzymatic activity assays
Purified urease activity with the addition of the organoselenium compounds studied was measured using cresol red as an indicator of pH changes caused by ammonia produced during ureolysis.S6 The reaction was carried out in 3 mM phosphate buffer containing 30 mM urea, 0.01 % w/v cresol red, purified urease (at a concentration that led to a change in A570 of approximately 1.5 in 90 min) and studied compounds at various concentrations. The reaction was followed by using a TECAN Sunrise spectrometer , and the resulting progress curves were further analyzed to determine the activity and binding mechanism. The rea ction was followed in a system without preincubation of the enzyme with the benzisoselenazolone derivatives (addition of urease initiated the measurement). […]
Whole cell ureolysis assays
To measure the inhibitory activity of the compounds studied against whole cells of ureolytic pathogens, the cresol red reaction was carried out using H. pylori cells that were washed twice with 10 mM PBS and used as a biocatalyst.S6 The reaction mixture contained 10 mM PBS, 10 […]
mM urea, bacterial cells, and urease inhibitors. The results were then used to calculate the IC50 values of the organoselenium compounds against the whole cell ureolysis of H. pylori. […]

S. pasteurii urease = target: T1, S. pasteurii urease (Sporosarcina pasteurii, UniProt P41020); experiment: Purified S. pasteurii urease inhibition, cresol red assay, no preincubation; type: biochemical, Sporosarcina pasteurii CCM 2056; conditions: native purified urease, slow-binding, read-out: K i, S. pasteurii urease
T1 construct: The native urease, purified from S. pasteurii CCM 2056; made in house; host or cells: Sporosarcina pasteurii CCM 2056 (native, endogenous enzyme, not recombinant)
T1 sequence (P41020 whole entry): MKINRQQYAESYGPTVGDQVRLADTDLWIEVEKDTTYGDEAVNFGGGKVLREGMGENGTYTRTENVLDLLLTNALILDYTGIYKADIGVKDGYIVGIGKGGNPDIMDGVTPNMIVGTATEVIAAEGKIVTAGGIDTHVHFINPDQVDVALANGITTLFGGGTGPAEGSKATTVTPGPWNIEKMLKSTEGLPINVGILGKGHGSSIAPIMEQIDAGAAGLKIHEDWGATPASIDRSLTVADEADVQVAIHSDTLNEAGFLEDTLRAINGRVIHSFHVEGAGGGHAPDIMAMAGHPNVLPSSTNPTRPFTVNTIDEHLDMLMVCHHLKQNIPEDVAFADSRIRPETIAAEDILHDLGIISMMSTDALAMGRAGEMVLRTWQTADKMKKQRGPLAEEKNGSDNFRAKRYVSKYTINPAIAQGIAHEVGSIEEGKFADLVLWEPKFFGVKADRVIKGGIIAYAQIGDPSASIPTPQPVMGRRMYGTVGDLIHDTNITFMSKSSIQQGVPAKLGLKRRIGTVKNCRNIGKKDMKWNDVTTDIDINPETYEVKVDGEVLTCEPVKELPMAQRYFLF
T1 sequence (P41022 whole entry, further chain): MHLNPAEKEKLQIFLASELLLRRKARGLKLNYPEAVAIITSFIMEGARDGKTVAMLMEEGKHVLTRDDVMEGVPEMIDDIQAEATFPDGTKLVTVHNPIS
T1 sequence (P41021 whole entry, further chain): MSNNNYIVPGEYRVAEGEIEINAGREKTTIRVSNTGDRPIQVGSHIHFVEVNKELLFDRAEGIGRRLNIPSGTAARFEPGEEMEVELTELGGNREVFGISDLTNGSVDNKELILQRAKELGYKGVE
Description: compounds. Helicobacter pylori 2CLM belongs to the collection of the Department of Microbiology, Wrocław Medical University, Poland.
Purification of S. pasteurii urease
The native urease from the cells of S. pasteurii was induced and purified in a five-step chromatographic procedure, as previously described.S5 The protein concentration was […]
as §1
Purified urease activity with the addition of the organoselenium compounds studied was measured using cresol red as an indicator of pH changes caused by ammonia produced during ureolysis.S6 The reaction was carried out in 3 mM phosphate buffer containing 30 mM urea, 0.01 % w/v cresol red, purified urease (at a concentration that led to a change in A570 of approximately 1.5 in 90 min) and studied compounds at various concentrations. The reaction was followed by using a TECAN Sunrise spectrometer , and the resulting progress curves were further analyzed to determine the activity and binding mechanism. The rea ction was followed in a system without preincubation of the enzyme with the benzisoselenazolone derivatives (addition of urease initiated the measurement).
The progress curves were fitted to the following equation to calculate the apparent reaction rate constants ( kapp):
P = v ∗ t + 0 s ∗ (1 − e−kapp∗t)
P – product concentration; t – time; v0 – initial state velocity; vs – steady state velocity.
The kapp values were then plotted against the inhibitor concentration [I], and the resulting linear function was used to calculate the dissociation […] of the EI complex (Ki): […]

[2] = tested on: multidrug-resistant clinical isolate H. pylori 2CML; experiment: Antimicrobial activity alone and in combination with antibiotics, checkerboard method; type: cell-based, Helicobacter pylori; conditions: for MIC: Helicobacter pylori
Description: Combination of drugs against H. pylori 2CML
A multidrug-resistant clinical isolate H. pylori 2CML from the collection of the Department of Microbiology, Wrocław Medical University)S7 was used to assess the antimicrobial activity of compounds 1 and 4m, in combination with Clarithromycin, Metronidazole, and Levofloxacin (Sigma-Aldrich). The experiments were carried out on flat-bottom 12-well microtiter plates (Bionovo, Legnica, Poland), arranged in a 48-well panel to use the checkboard method.S8 […]
the selected antibiotic were placed in external wells along the x- and y-axes, respectively. The remaining wells contained varying concentrations of both compounds. Each well consisted of 1 mL of Brain Heart Infusion (Oxoid, Le Pont de Claix , France) broth with 5% foetal calf serum (Gibco, Paisley, Scotland, UK) , a bacterial suspension of 10^7 CFU/mL and the desired concentration of the antimicrobial (s) tested. Following the setup, the plates were incubated for 3 days at 37 °C under microaerophilic conditions (GENbox microaer kits, BioMerrieux, Marcy l’Etoile, France), shaking at 100 rpm.
The minimum inhibitory concentration (MIC) was determined as the lowest concentration in which no microbial growth was observed .
The interactions between antimicrobials were interpreted b y calculation of the fractional inhibitory concentration (FIC) index (FICI), defined as FICI = FICA + FICB (FICA = MIC of substance A in combination / MIC of substance A alone, FICB = MIC of substance B in combination / MIC of substance B alone). FICI ≤0.5 was considered as synergism; >0.5 but ≤1 as additivity, while […] as neutral.

[3] = tested on: Proteus mirabilis pathogenic cells; conditions: previously reported by the authors; reference number not given; read-out: IC50, ureolysis in Proteus mirabilis pathogenic cells; cited from earlier work
[4] = Helicobacter pylori, ATCC51932, read-out: IC50, H. pylori whole-cell ureolysis, live cells of H. pylori Tx30a
[5] = 72 h, H. pylori 2CML, single agent, read-out: MIC Alone
[6] = H. pylori 2CML, single agent, read-out: MIC Alone
[7] = pair 4m + Metronidazole, H. pylori 2CML
[8] = pair Ebselen + Metronidazole, H. pylori 2CML
[9] = pair Ebselen + Clarithromycin, H. pylori 2CML
[10] = pair Ebselen + Levofloxacin, H. pylori 2CML
[11] = pair 4m + Clarithromycin, H. pylori 2CML
[12] = pair 4m + Levofloxacin, H. pylori 2CML
[13] = read-out: IC50, H. pylori whole-cell ureolysis, live cells of H. pylori Tx30a

“N-(4-chloro-2-fluorophenyl)-1,2-benzisoselenazol-3(2H)-one [compound 2, reference compound]” showed an IC50 ([1]; live cells of H. pylori Tx30a, read-out: IC50, H. pylori whole-cell ureolysis) of 337 nM.
Compound O=c1c2ccccc2[se]n1Cc1ccc(Cl)c(C(F)(F)F)c1 [4n] has an IC50 [1, 4] of 153 ± 5.4 nM and a Ki (S. pasteurii urease) of 18.6 ± 0.37 nM.
Work on O=c1c2ccccc2[se]n1Cc1cc(F)cc(F)c1 [4p] yielded an IC50 [1, 4] of 122 ± 4.1 nM and a Ki (S. pasteurii urease) of 1.3 ± 0.027 nM.
Cc1ncc([N+](=O)[O-])n1CCO [Metronidazole] showed an MIC [2, 5] of 64 µg/mL, an MIC [2, 6] of 64 µg/mL and an FIC ([2]; pair 4m + Metronidazole) of 0.5. For the same compound, the “Fold change of MIC (reduction)” value ([2]; pair 4m + Metronidazole) was “×2↓”, the “MIC Combination” value [2, 7] was 32 µg/mL and the FIC ([2]; pair Ebselen + Metronidazole) was 0.5. The “Fold change of MIC (reduction)” value ([2]; pair Ebselen + Metronidazole) was “×2↓” and the “MIC Combination” value [2, 8] was 32 µg/mL.
In the case of O=c1c2ccccc2[se]n1Cc1cc(C(F)(F)F)cc(C(F)(F)F)c1 [4q], the IC50 [1, 4] is reported as 208 ± 4.5 nM and the Ki (S. pasteurii urease) is reported as 3.32 ± 0.29 nM.
Work on O=c1c2ccccc2[se]n1-c1ccccc1 [compound 1, N-phenyl-1,2-benzisoselenazol-3(2H)-one] yielded an MIC [2, 5] of 0.857 µg/mL, an MIC [2, 6] of 0.857 µg/mL and an MIC ([2]; H. pylori 2CML, single agent, read-out: MIC alone) of 3.12 µM. The FIC ([2]; pair Ebselen + Clarithromycin) was 0.5, the FICI ([2]; pair Ebselen + Clarithromycin) was 1 and the Interpretation ([2]; pair Ebselen + Clarithromycin) was “Additive (>0.5 but ≤1 as additivity)”. For the same compound, the “MIC Combination” value [2, 9] was 0.429 µg/mL, the FIC ([2]; pair Ebselen + Levofloxacin) was 0.5 and the FICI ([2]; pair Ebselen + Levofloxacin) was 1. For the same compound, the Interpretation ([2]; pair Ebselen + Levofloxacin) was “Additive (>0.5 but ≤1 as additivity)”, the “MIC Combination” value [2, 10] was 0.429 µg/mL and the FIC ([2]; pair Ebselen + Metronidazole) was 0.5. The FICI ([2]; pair Ebselen + Metronidazole) was 1, the Interpretation ([2]; pair Ebselen + Metronidazole) was “Additive (>0.5 but ≤1 as additivity)” and the “MIC Combination” value [2, 8] was 0.429 µg/mL. For the same compound, the IC50 [1, 4] was 742 ± 41 nM and the IC50 [3] was 29.2 ± 3.1 nM.
For O=c1c2ccccc2[se]n1Cc1ccc(F)cc1 [4d], the IC50 [1, 4] was 193 ± 8.1 nM and the Ki (S. pasteurii urease) was 25.4 ± 2.8 nM.
Compound O=c1c2ccccc2[se]n1Cc1ccc(F)c(F)c1F [4r] has an IC50 [1, 4] of 179 ± 3.3 nM and a Ki (S. pasteurii urease) of 2.94 ± 0.26 nM.
O=c1c2ccccc2[se]n1Cc1c(F)cccc1F [4j] showed an IC50 [1, 4] of 218 ± 14 nM and a Ki (S. pasteurii urease) of 1.16 ± 0.14 nM.
O=c1c2ccccc2[se]n1Cc1ccc(C(F)(F)F)cc1 [4e] gave an IC50 [1, 4] of 170 ± 1.6 nM and a Ki (S. pasteurii urease) of 2.1 ± 0.19 nM.
For O=c1c2ccccc2[se]n1Cc1ccccc1 [compound 3], the IC50 ([1]; Helicobacter pylori, ATCC51932, live cells of H. pylori Tx30a, read-out: IC50, H. pylori whole-cell ureolysis) was 151 ± 5.7 nM.
Compound O=c1c2ccccc2[se]n1Cc1cc(Cl)ccc1Cl [4h] has an IC50 [1, 4] of 341 ± 23 nM and a Ki (S. pasteurii urease) of 9.04 ± 0.22 nM.
O=c1c2ccccc2[se]n1Cc1ccc(C(F)(F)F)c(F)c1 [4m] showed an MIC ([2]; 72 h, read-out: MIC Alone) of 1.17 µg/mL, an MIC ([2]; read-out: MIC Alone) of 1.17 µg/mL and an MIC ([2]; read-out: MIC alone) of 3.12 µM. For the same compound, the FIC ([2]; pair 4m + Clarithromycin) was 0.0625, the FICI ([2]; pair 4m + Clarithromycin) was 0.562 and the Interpretation ([2]; pair 4m + Clarithromycin) was “Additive (>0.5 but ≤1 as additivity)”. The “MIC Combination” value [2, 11] was 0.0731 µg/mL, the MIC in combination [2, 11] was 0.2 µM and the FIC ([2]; pair 4m + Levofloxacin) was 0.5. For the same compound, the FICI ([2]; pair 4m + Levofloxacin) was 1, the “Fold change of MIC (reduction)” value ([2]; pair 4m + Levofloxacin) was “×2↓” and the Interpretation ([2]; pair 4m + Levofloxacin) was “Additive (>0.5 but ≤1 as additivity)”. For the same compound, the “MIC Combination” value [2, 12] was 0.585 µg/mL, the FIC ([2]; pair 4m + Metronidazole) was 0.125 and the FICI ([2]; pair 4m + Metronidazole) was 0.625. The Interpretation ([2]; pair 4m + Metronidazole) was “Additive (>0.5 but ≤1 as additivity)”, the “MIC Combination” value [2, 7] was 0.146 µg/mL and the IC50 [1, 4] was less than 100 nM. It also gave an IC50 [1, 13] of 93.5 ± 5.3 nM and a Ki (S. pasteurii urease) of 15.9 ± 1.9 nM.
Work on O=c1c2ccccc2[se]n1Cc1ccc(F)c(C(F)(F)F)c1 [4o] yielded an IC50 [1, 4] of 107 ± 1.9 nM and a Ki (S. pasteurii urease) of 2.99 ± 0.088 nM.
In the case of O=c1c2ccccc2[se]n1Cc1ccc(Cl)cc1Cl [4f], the IC50 [1, 4] is reported as 345 ± 16 nM and the Ki (S. pasteurii urease) is reported as 0.594 ± 0.032 nM.
With O=c1c2ccccc2[se]n1Cc1ccccc1F [4a] the IC50 [1, 4] was 171 ± 5.4 nM and the Ki (S. pasteurii urease) was 3.61 ± 0.28 nM.
Work on O=c1c2ccccc2[se]n1Cc1cc(F)ccc1Cl [4i] yielded an IC50 [1, 4] of less than 100 nM, an IC50 [1, 13] of 96.4 ± 1.7 nM and a Ki (S. pasteurii urease) of 0.543 ± 0.015 nM.
Compound O=c1c2ccccc2[se]n1Cc1ccc(Cl)c(Cl)c1 [4k] has an IC50 [1, 4] of 315 ± 4.7 nM and a Ki (S. pasteurii urease) of 15.9 ± 0.65 nM.
For O=c1c2ccccc2[se]n1Cc1cccc(C(F)(F)F)c1 [4c], the IC50 [1, 4] was 112 ± 2.4 nM and the Ki (S. pasteurii urease) was 2.5 ± 0.24 nM.
In the case of O=c1c2ccccc2[se]n1Cc1ccc(F)cc1F [4g], the IC50 [1, 4] is reported as 287 ± 18 nM and the Ki (S. pasteurii urease) is reported as 2.52 ± 0.19 nM.
For CC[C@H]1OC(=O)[C@H](C)[C@@H](O[C@H]2C[C@@](C)(OC)[C@@H](O)[C@H](C)O2)[C@H](C)[C@@H](O[C@@H]2O[C@H](C)C[C@H](N(C)C)[C@H]2O)[C@](C)(OC)C[C@@H](C)C(=O)[C@H](C)[C@@H](O)[C@]1(C)O [Clarithromycin], the MIC [2, 5] was 16 µg/mL, the MIC [2, 6] was 16 µg/mL and the FIC ([2]; pair 4m + Clarithromycin) was 0.5. The “Fold change of MIC (reduction)” value ([2]; pair 4m + Clarithromycin) was “×2↓”, the “MIC Combination” value [2, 11] was 8 µg/mL and the FIC ([2]; pair Ebselen + Clarithromycin) was 0.5. For the same compound, the “Fold change of MIC (reduction)” value ([2]; pair Ebselen + Clarithromycin) was “×2↓” and the “MIC Combination” value [2, 9] was 8 µg/mL.
Compound C[C@H]1COc2c(N3CCN(C)CC3)c(F)cc3c(=O)c(C(=O)O)cn1c23 [Levofloxacin] has an MIC [2, 5] of 16 µg/mL, an MIC [2, 6] of 16 µg/mL and an FIC ([2]; pair 4m + Levofloxacin) of 0.5. The “Fold change of MIC (reduction)” value ([2]; pair 4m + Levofloxacin) was “×2↓”, the “MIC Combination” value [2, 12] was 8 µg/mL and the FIC ([2]; pair Ebselen + Levofloxacin) was 0.5. The “Fold change of MIC (reduction)” value ([2]; pair Ebselen + Levofloxacin) was “×2↓” and the “MIC Combination” value [2, 10] was 8 µg/mL.
Compound O=c1c2ccccc2[se]n1Cc1ccc(F)c(F)c1 [4l] has an IC50 [1, 4] of 110 ± 4.5 nM and a Ki (S. pasteurii urease) of 3.35 ± 0.65 nM.
Work on O=c1c2ccccc2[se]n1Cc1cccc(F)c1 [4b] yielded an IC50 [1, 4] of 154 ± 8.4 nM and a Ki (S. pasteurii urease) of 12.2 ± 0.4 nM.
